The values below come from PMC8705783, “The Effect of Conjugation with Octaarginine, a Cell-Penetrating Peptide on Antifungal Activity of Imidazoacridinone Derivative” (International Journal of Molecular Sciences, 2021).

The structures appear in SMILES notation. Values after ≈ are worked out from the molar mass of the structure shown. Like-named read-outs stand apart in the source and are kept apart here. A value given as a limit tells only on which side of the number the result lay.

The subject of one data set is Candida albicans. Also on record: method as in PMID 23563951. As to conditions: cited from earlier work.
The next data set addresses human topoisomerase II. As to conditions: cited from earlier work.
Data set [1] relates to Candida krusei ATCC 6258. Briefly: microbe, parasite or virus in culture. The following applies: Pichia kudriavzevii, ATCC6258, 24 h, pH 7.
Data set [2] has as its system Candida albicans ATCC 10231.
The target of data set [3] is T1, yeast topoisomerase II (Saccharomyces cerevisiae, UniProt P06786). As to the kind of experiment: Yeast topoisomerase II relaxation assay. The format is biochemical. The following applies: supercoiled pBR322, tested at 1-200 μM. The protocol:
Due to the known activity of acridine and acridone derivatives as human topoisomerase inhibitors widely analysed for cancer chemotherapy, we decided to analyse the influence of Compound 1 as well as its R8 conjugate on the fungal equivalent of that enzyme. The relaxation of supercoiled plasmid DNA by yeast topoisomerase II (yTOPO II) was studied in the presence of different concentrations of both compounds.
The inhibition of yeast topoisomerase II was analysed according to the relaxation assay kit from Inspiralis (Inspiralis Limited, Norwich, UK). Briefly, 250 ng of supercoiled pBR322 DNA (Thermo Fisher Scientific, Waltham, MA, USA), 1 mM ATP (Inspiralis Limited, UK), and 1–200 μM of the analysed compound were mixed with reaction buffer (1 mM Tris-HCl (pH 7.9), 10 mM KCl, 0.5 mM MgCl2, 0.2 % (by volume) glycerol). The reaction was initiated by the addition of an enzyme, allowed to proceed at 30 °C for 30 min and terminated by addition of 40% (m/V) sucrose, 100 mM Tris-HCl pH 8, 10 mM EDTA, and 0.5 mg mL^−1 Bromophenol Blue. Two-step extraction with chloroform:isoamyl alcohol (24:1, by volume) and butanol water was performed and mixtures were analysed on 1% agarose gel in 1 × TAE buffer, 3h, 4.5 V cm^−1. Gel was stained in GelRed 3 × staining solution (Biotium, Fremont, CA, USA) for 30 min and photographed with Gel Doc XR+Gel Documentation System (Bio-Rad: Hercules, CA, USA).

In data set [4] the test system is Saccharomyces cerevisiae ATCC 9763.
Another data set relates to HEK-293 and HEPG2. As to the kind of experiment: Antiproliferative activity, MTT, both tested cell lines. The following applies: Homo sapiens; Table 5. The format is cell-based. The protocol: (§1) The investigated compounds were screened for their in vitro antiproliferative activity towards a human embryonic kidney cell line (HEK-293) and human liver cancer cell line (HEPG2) using colorimetric MTT.
The human embryonic kidney cell line (HEK-293) and human liver cancer cell line (HEPG2) were purchased from ATCC (Manassas, Virginia, USA). HEK-293 was cultured in Dulbecco’s Modified Eagle Medium (Corning, NY, USA) and HEPG2 in Minimum Essential Medium Eagle (Corning, NY, USA). For each cell line, the culture medium was supplemented with 10% fetal bovine serum, 2 mM L-glutamine, and antibiotics: penicillin 62.6 µg mL^−1 and streptomycin 40 µg mL^−1. […]
Antiproliferative activity of the compounds was determined by (3-(4,5-dimethylthiazol-2-yl)-2,5-diphenyltetrazolium bromide (MTT, Sigma-Aldrich, St. Louis, MO, USA) assay, which involves the assessment of cell viability by the measurement of the cellular oxidoreductase activity. Briefly, cells were seeded into 96-well culture plates and were allowed to adhere overnight. The investigated compounds were dissolved in DMSO and added to wells (1% final concentration of DMSO) in various concentrations. After 72 h incubation, 20 µL of MTT solution in PBS (4 mg mL^−1) was added to each well, and plates were incubated for an additional 3h in standard culture conditions. […]

For a further data set, the system named is HEK-293. As to the kind of experiment: cells. Format: cell-based, human. As to the method: as §1
(§2) The human embryonic kidney cell line (HEK-293) and human liver cancer cell line (HEPG2) were purchased from ATCC (Manassas, Virginia, USA). HEK-293 was cultured in Dulbecco’s Modified Eagle Medium (Corning, NY, USA) and HEPG2 in Minimum Essential Medium Eagle (Corning, NY, USA). For each cell line, the culture medium was supplemented with 10% fetal bovine serum, 2 mM L-glutamine, and antibiotics: penicillin 62.6 µg mL^−1 and streptomycin 40 µg mL^−1. The cells were cultured at the humidified atmosphere of 5% CO2/95% air and routinely tested for Mycoplasma contamination.
(§3) Antiproliferative activity of the compounds was determined by (3-(4,5-dimethylthiazol-2-yl)-2,5-diphenyltetrazolium bromide (MTT, Sigma-Aldrich, St. Louis, MO, USA) assay, which involves the assessment of cell viability by the measurement of the cellular oxidoreductase activity. Briefly, cells were seeded into 96-well culture plates and were allowed to adhere overnight. The investigated compounds were dissolved in DMSO and added to wells (1% final concentration of DMSO) in various concentrations. After 72 h incubation, 20 µL of MTT solution in PBS (4 mg mL^−1) was added to each well, and plates were incubated for an additional 3h in standard culture conditions. After that, the medium was aspirated, and formazan crystals were dissolved in DMSO. The absorbance was determined at 570 nm with a microplate reader (Asys UVM 340 Microplate Reader, Biochrom, Cambridge, UK). All experiments were performed three times independently in triplicate.

Another data set concerns HEPG2. As to the kind of experiment: cells. The format is cell-based, human. The protocol: as §1, §2, §3
The subject of data set [5] is Candida parapsilosis ATCC 22019.
For data set [6], the system named is Candida albicans ATCC 10231. As to the kind of experiment: microbe, parasite or virus in culture. The following applies: ATCC10231, 24 h, pH 7.
In a further data set the test system is Candida albicans cells. Also on record: method as in PMID 23563951. The following applies: cited from earlier work.
Data set [7] addresses T1, yeast topoisomerase II. As to the kind of experiment: Formation of cleavable complexes in vitro. The following applies: 0.1-10 μM, pBR322 plasmid DNA. The format is biochemical. The protocol: Cleavage assay of yeast topoisomerase II was performed according to the formation of cleavable complexes kit from Inspiralis. The experimental conditions were the same as for the relaxation assay except for the amount of yeast topoisomerase II (16 times more enzyme was used). The reaction was initiated by the addition of the enzyme and allowed to proceed for 10 min at 30 °C. Then, 0.35% SDS and 0.3 mg mL^−1 proteinase K (A&A Biotechnology, Gdynia, Poland) was added, and the probes were incubated in 56 °C for 1 h. The reaction was terminated by the addition of 100 mM Tris-HCl pH 8, 10 mM EDTA, 0.5 mg mL^−1 Bromophenol Blue. Extraction with chloroform:isoamyl alcohol (24:1, by volume) was performed, and mixtures were analysed on the 1.2% agarose gel with 0.5 µg mL^−1 ethidium bromide in 1x TAE buffer, 18 h, 1.1 V cm^−1. Gel was photographed with the Gel Doc XR+Gel Documentation System.

Data set [8] has as its system Saccharomyces cerevisiae ATCC 9763. As to the kind of experiment: microbe, parasite or virus in culture. As to conditions: ATCC9763, 24 h, pH 7.
The subject of data set [9] is Candida glabrata ATCC 90030. As to the kind of experiment: microbe, parasite or virus in culture. The following applies: Nakaseomyces glabratus, ATCC90030, 24 h, pH 7.
In data set [10] the test system is Candida krusei ATCC 6258.
The next data set concerns reference strains. As to the kind of experiment: Antifungal activity, summary over reference strains. Format: cell-based. Also on record: key to Antifungal Activity (level): (−) Means no antifungal activity; (±) low activity; (+) moderate activity; (++) high activity at the concentration mentioned.
The test system of data set [11] is Candida glabrata ATCC 90030.
Data set [12] has as its system Candida parapsilosis ATCC 22019. As to the kind of experiment: microbe, parasite or virus in culture. The following applies: Lodderomyces parapsilosis, ATCC22019, 24 h, pH 7.
A further data set has as its system Candida albicans Gu5. The following applies: Gu5, 12 h.
In another data set the test system is Candida albicans B4. As to conditions: B4, 12 h.
For the next data set, the system named is Candida albicans F2. The following applies: F2, 12 h.
A further data set has as its system Candida albicans Gu4. The following applies: Gu4, 12 h.
The subject of another data set is Candida albicans F5. The following applies: F5, 12 h.
The test system of a further data set is HeLa cells. The following applies: cited from earlier work.
For a further data set, the system named is Candida albicans B3. The following applies: B3, 12 h.

T1 sequence (P06786 whole entry): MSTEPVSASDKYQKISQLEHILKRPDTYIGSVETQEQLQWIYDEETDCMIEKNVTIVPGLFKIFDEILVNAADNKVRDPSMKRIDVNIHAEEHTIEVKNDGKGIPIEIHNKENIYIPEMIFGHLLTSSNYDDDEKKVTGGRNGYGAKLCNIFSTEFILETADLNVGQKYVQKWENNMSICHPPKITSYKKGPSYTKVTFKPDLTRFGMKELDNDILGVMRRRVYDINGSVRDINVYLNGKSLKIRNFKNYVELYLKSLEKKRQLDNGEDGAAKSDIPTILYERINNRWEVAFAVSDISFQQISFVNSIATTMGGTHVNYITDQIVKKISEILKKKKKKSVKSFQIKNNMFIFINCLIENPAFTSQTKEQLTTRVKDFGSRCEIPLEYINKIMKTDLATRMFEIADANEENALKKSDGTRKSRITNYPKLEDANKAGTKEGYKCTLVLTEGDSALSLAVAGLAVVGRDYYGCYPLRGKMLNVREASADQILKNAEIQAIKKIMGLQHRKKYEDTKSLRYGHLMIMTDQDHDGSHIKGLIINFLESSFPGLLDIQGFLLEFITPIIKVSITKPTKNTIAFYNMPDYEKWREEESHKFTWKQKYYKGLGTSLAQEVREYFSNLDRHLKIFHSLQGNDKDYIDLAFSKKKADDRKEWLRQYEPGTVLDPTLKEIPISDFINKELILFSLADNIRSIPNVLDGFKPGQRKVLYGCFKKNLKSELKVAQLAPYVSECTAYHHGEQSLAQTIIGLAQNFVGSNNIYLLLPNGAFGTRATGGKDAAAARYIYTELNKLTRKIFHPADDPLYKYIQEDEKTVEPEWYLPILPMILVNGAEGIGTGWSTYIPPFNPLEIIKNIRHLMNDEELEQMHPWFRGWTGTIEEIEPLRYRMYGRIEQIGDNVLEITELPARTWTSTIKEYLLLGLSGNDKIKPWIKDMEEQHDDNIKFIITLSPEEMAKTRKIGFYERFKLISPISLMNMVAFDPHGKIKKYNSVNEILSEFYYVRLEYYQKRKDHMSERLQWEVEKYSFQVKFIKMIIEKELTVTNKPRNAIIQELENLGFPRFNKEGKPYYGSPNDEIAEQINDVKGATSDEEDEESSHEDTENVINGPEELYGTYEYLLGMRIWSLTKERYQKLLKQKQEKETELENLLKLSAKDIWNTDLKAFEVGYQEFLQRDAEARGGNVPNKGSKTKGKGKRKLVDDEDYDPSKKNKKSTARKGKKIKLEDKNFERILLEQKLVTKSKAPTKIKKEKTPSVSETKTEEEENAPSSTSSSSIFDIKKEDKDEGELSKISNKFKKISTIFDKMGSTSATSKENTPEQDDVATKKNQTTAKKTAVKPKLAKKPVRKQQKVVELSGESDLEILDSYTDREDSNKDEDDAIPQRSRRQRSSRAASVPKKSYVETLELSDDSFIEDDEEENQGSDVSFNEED

The term IC50 denotes the concentration needed to halve the response being measured. In the case of `CCN(CC)CCNc1ccc2ncn3c4ccc(O)cc4c(=O)c1c23` [Compound C-1311, 5-((2-(Diethylamino)ethyl)amino)-8-hydroxy-6H-imidazo[4,5,1-de]acridin-6-one], the “antifungal activity” value in the data set on Candida albicans and with reference strains (as reported in Table 1) was “no antifungal activity was observed” in each case. In addition, on human topoisomerase II, the “IC50 (hTOPO II inhibition)” value was 2.5 µg/mL (≈ 7.13 µM). The IC50 on human topoisomerase II (read-out: IC50 (hTOPO II inhibition)) is 6.5 µM; in the data set on HEK-293 and HEPG2, at most 1000 nM; in the data set on HEK-293 (Homo sapiens, HEK293, 72 h treatment, MTT, ± SD, read-out: IC50 (antiproliferative activity)), 8 ± 7 nM; in the data set on HEPG2 (Homo sapiens, HEPG2, 72 h treatment, MTT, ± SD, read-out: IC50 (antiproliferative activity)), 129 ± 37 nM. The MIC90 (in the data set with Candida krusei ATCC 6258 [1]; in data set [6]; in data set [8]; in data set [9]; in data set [12]) was above 64 µg/mL each time. Besides, the “IC50 HEK293/MIC90 (mycostatic selectivity index)” value in [2] (HEK293 vs Candida albicans ATCC 10231, MIC converted to micromolar) is below 0.00005; in data set [4] (HEK293 vs Saccharomyces cerevisiae ATCC 9763) it was below 0.00005; in data set [5] (HEK293 vs Candida parapsilosis ATCC 22019) it was below 0.00005; in the data set on Candida krusei ATCC 6258 [10] (HEK293 vs Candida krusei ATCC 6258), below 0.00005; in data set [11] (HEK293 vs Candida glabrata ATCC 90030), below 0.00005. Also, the “IC50 HEPG2/MIC90 (mycostatic selectivity index)” value (in data set [2] (HEPG2 vs Candida albicans ATCC 10231); in [4] (HEPG2 vs Saccharomyces cerevisiae ATCC 9763); in [5] (HEPG2 vs Candida parapsilosis ATCC 22019); with Candida krusei ATCC 6258 [10] (HEPG2 vs Candida krusei ATCC 6258); in data set [11] (HEPG2 vs Candida glabrata ATCC 90030)) was below 0.00078 each time. Also, on yeast topoisomerase II [3], the “concentration that totally inhibited yeast topoisomerase II-mediated relaxation” value was found to be 50 µM. For the same molecule, in the data set on Candida albicans cells, the “accumulation in Candida albicans cells” value is given as “unable to accumulate in Candida albicans cells”. Moreover, at yeast topoisomerase II [7], the “formation of DNA–yeast topoisomerase II cleavable complexes” value is given as “stimulated the formation of DNA–yeast topoisomerase II cleavable complexes”. For the same molecule, the “Antifungal Activity (level)” value in the data set on reference strains (Table 3) was “−”.
In the case of `N=C(N)NCCC[C@H](NC(=O)[C@H](CCCNC(=N)N)NC(=O)[C@H](CCCNC(=N)N)NC(=O)[C@H](CCCNC(=N)N)NC(=O)[C@H](CCCNC(=N)N)NC(=O)[C@H](CCCNC(=N)N)NC(=O)[C@H](CCCNC(=N)N)NC(=O)[C@@H](N)CCCNC(=N)N)C(=O)O` [Compound R8, Octaarginine], the MIC90 with Candida albicans Gu5 is above 64 µg/mL; in [2] (ATCC 10231, 18 h), above 64 µg/mL; in data set [2] (ATCC 10231, 24 h, pH 7), above 64 µg/mL; in [4] (ATCC 9763, 24 h, pH 7), 64 µg/mL (≈ 50.5 µM); against Candida albicans B4, above 64 µg/mL; with Candida albicans F2 it was above 64 µg/mL. The MIC90 in [5] (ATCC 22019, 24 h, pH 7) was 64 µg/mL (≈ 50.5 µM); against Candida albicans Gu4 it was above 64 µg/mL; with Candida albicans F5 it was above 64 µg/mL; with Candida albicans B3 it was above 64 µg/mL; against Candida krusei ATCC 6258 [10] (ATCC 6258, 24 h, pH 7) it was above 64 µg/mL; in data set [11] (ATCC 90030, 24 h, pH 7) it was above 64 µg/mL. In addition, the IC50 in the data set on HEK-293 (72 h) and with HEPG2 (72 h) was above 50000 nM throughout. Also, the cytotoxicity result in the data set on HeLa cells is recorded as “no cytotoxicity”.
